The values below come from patent US5698674A, “Triheterocyclic peptides capable of binding the minor and major grooves of DNA” (The Regents of the University of California, priority 1994, dated 1997).

For series [1], the system named is .phi.X-174-RF DNA HaeIII restriction digest fragments. Put plainly: Electrophoretic mobility shift assay. The class given is binding. Particulars: for change in electrophoretic behavior: 150 μM; for order of effectiveness in increasing the apparent length of DNA fragments: RL values; for RL vs. agent concentration: 1078 bp fragment. In general terms: In EMSA bound probe runs differently from free probe, usually more slowly.

The target in series [2] is d(GGCGCAAATTTGGCGG)(SEQ ID NO:1)/d(CCGCCAAATTTGCGCC)(SEQ ID NO:2). Put plainly: Hoechst 33258 (Ht) fluorescence competition, equilibrium association constants with hexadecamer duplex. Format: binding. Conditions: for log KL1: association constant of first ligand, H2O, 10 mM phosphate buffer, pH 7.0, 10 mM NaCl, 35° C, for Ht = log KHt1, Dm, 2, 5a-c recalculated from previously collected data; for log KL1 / log KL2 / log KHtL: mean ± SD; for log KL1 / log KL2: Ht; for log KL2: association constant of second ligand, for Ht = log KHt2, Dm, 2, 5a-c recalculated; for log KHtL: binding of L to DNA:Ht; for log KL1 KL2: complex association constant. The procedure: Equilibrium constants for the association of 6a and 6b with oligomeric DNA were assessed by the complexing of tren-microgonotropen-a and -b to the hexadecamer d(GGCGCAAATTTGGCGG)(SEQ ID NO:1)/d(CCGCCAAATTTGCGCC)(SEQ ID NO:2) in aqueous solutions at 35° C. (2.8 mL solutions containing 0.01M phosphate buffer, pH 7.0, and 0.01M NaCl).
These reactions were followed by the competition of the dye Hoechst 33258 (Ht) with 6a and 6b for the A3 T3 minor groove binding site (an extension of Ht alone binding to dsDNA). The concentrations of 6a and 6b were confirmed by ^1 H NMR peak integration of resonances with those of an equivalent concentration of mesitoate.
As shown previously (Browne, K. A.; He, G.-X.; Bruice, T. C. J. Am. Chem. Soc. 1993, 115, 7072), monitoring the increase in fluorescence intensity as the association of Ht with the hexadecamer displaces prebound nonfluorescent ligands is an excellent method for determining equilibrium binding constants. FIG. 17 relates the equilibrium constants for the complexing of one and two Ht species to the hexadecamer with one and two L (where L=6a or 6b) binding to the hexadecamer, plus equilibrium constants for the simultaneous binding of one Ht and one L at the same site. [formula]
Eq 1, derived from FIG. 17, relates each of the equilibrium binding constants, the total fluorescence (Σθ), and [L] in terms of fluorescence (F) and [Ht]. The rationale behind FIG. 17 and the subsequent derivation of eq 1 have been described in considerable detail (Browne, et al., 1993, supra). The values of log KHt1 =7.6 and log KHt2 =9.1 used were determined from a reevaluation of data previously collected (Browne, et al., 1993, supra) and are very close to the previously determined values. A concentration independent static quenching term, Q', is included in eq 1 to account for the lessened fluorescent emission of the DNA:Ht:L complex compared to the DNA:Ht and DNA:Ht2 complexes.
The equilibrium association constants calculated as best fits to the experimental data points for 6a and 6b with eq 1 are presented in Table I. Plots of F vs. [Ht] using these constants at 8.0×10^-9, 1.0×10^-8, and 1.2×10^-8 M ligand and 5.0×10^-9 M in hexadecamer duplex are shown in FIGS. 3a and 3b.
Reagents and methods for DNA binding studies were exactly the same as used previously (He, et al., 1993, supra; Browne, et al., 1993, supra) unless stated otherwise. The values for the equilibrium constants for 2, 5a,b,c, Dm, and Ht were recalculated from previously collected data (Browne, et al., 1993, supra) using the curve fitting program SigmaPlot® 4.1.4 (Jandel Scientific, San Rafael, Calif.). The equilibrium constants for 6a and 6b were calculated with SigmaPlot® 4.1.4 using the reevaluated constants for Ht (KHt1 and KHt2).

For series [3], the system named is calf thymus topoisomerase I. As to the kind of experiment: Topoisomerase I inhibition assays (relaxation of supercoiled pBR322). The class given is biochemical. Conditions: for inhibition of topoI relaxation of supercoiled pBR322: agent preincubated with DNA 1 hr before 18 hr topoI reaction, 37° C; for inhibition of topoI after partial relaxation: added after 0.5 hr topoI incubation, then 18 hr. As to the method: Inhibition of topoI's action on supercoiled pBR322 by 6b was compared to inhibition by Dm and 5b (dien-microgonotropen-b). In the first set of experiments, each agent was allowed to incubate with the DNA for 1 hr prior to the 18 hr topoI reaction period.
In closely related experiments, the mode of inhibition of topoI was examined. This was accomplished by allowing the supercoiled DNA to be partially relaxed for 0.5 hr with topoI before any other DNA ligands were added (FIG. 6).
The buffer for all of the 50 μL reactions was composed of 50 mM Tris-HCl, pH 7.5, 50 mM KCl, 10 mM MgCl2, and 1 mM EDTA that was filtered through a sterile 0.45μ Gelman Sciences Acrodisc. Every reaction mixture contained 1 μg of supercoiled pBR322 plasmid (Pharmacia) and, except for the supercoiled control, every reaction mixture included 10 units of calf thymus topoisomerase I (Bethesda Research Laboratories).
All reactions were extracted twice with water-saturated phenol, extracted once with chloroform, and precipitated with ammonium acetate and ethanol.
The different helical forms of pBR322 created by the relaxation assays were electrophoretically separated through a 4% NuSieve 3:1 (hydroxyethylated) agarose gel (vertical, 0.8 mm) in 40 mM Tris-acetate, pH 8.0 and 1 mM EDTA for 8 hr at 2 V/cm.

Series [4] deals with 167 bp EcoRI/RsaI pBR322 restriction fragment. Put plainly: DNase I footprint analysis. Format: binding.
For series [5], the system named is d(CGCA3 T3 GCG (SEQ ID NO:3))2. As to the kind of experiment: Dynamics of ligand exchange in the 1:1 complex (ROESY NMR). The class given is binding. Conditions: 10° C. The procedure:
The data matrix was zero filled to 2K and appodized with a gaussian function to give a line broadening of 1 Hz in both frequency domains. The ROESY experiment was recorded at 10° C. using the Kessler pulse sequence (Kessler, H.; Griesinger, C.; Kerssebaum, R.; Wagner, E.: Ernst, R. J Am. Chem. Soc. 1987, 109, 607) with a mixing time of 50 ms and a locking field strength of 2.5 kHz.
The linearity of the NOE build-up with tm was checked for most of the dsDNA proton interactions between 50 and 180 ms and a 5-20 fold increase was found in the NOE volume integrals from the 50 to 180 ms mixing times. The exchange rate (kex) was calculated from eq 3 as follows:
kex =ln((1+R)/2.tau.m (1-R)), s^-1 eq(3) […]
The free energy of activation, ΔG*, for this exchange process at a certain temperature, T (K), was calculated from eq 4 (Gunther, H. "NMR Spectroscopy: An Introduction", John Wiley, New York, 1980, p. 241).
Exchanges between two equivalent binding sites have been proposed for dsDNA complexes of distamycin (Pelton et al., 1990, supra) and netropsin (Patel et al., 1985, supra). If we consider that the exchange is governed by a "flip-flop" mechanism (Pelton et al., 1990, supra) (FIG. 18), not excluding the possible existence of a fast sliding motion of 6b in the minor groove, the rate of exchange can be calculated (Experimental Section).

The subject of series [6] is d(GGCGCAAATTTGGCGG)(SEQ ID NO:1)/d(CCGCCAAATTTGCGCC)(SEQ ID NO:2). Conditions: hexadecamer; Browne et al., 1993; cited from earlier work.
The next series relates to mice. Particulars: cited from earlier work.
The test system of series [7] is d(CGCA3 T3 GCG (SEQ ID NO:3))2. Particulars: 30° C; Pelton et al., 1990; cited from earlier work.
[8] abbreviates: 25 and 50 μM (0.25 and 0.5 ligand/bp DNA).

Several values for one entry are separate records, joined by “and”; a condition that tells them apart may be missing. Identical values can stand only once. Entries after “also recorded” stand apart in the source; their conditions may differ. Like-named read-outs stand apart in the source and are kept apart here.

As for `NCCN(CCN)CCN` [Tren, tris(2-aminoethyl)amine], in series [1], the “change in electrophoretic behavior” value was “no apparent change in electrophoretic behavior” and the “order of effectiveness in increasing the apparent length of DNA fragments” value amounted to 6a^~ 6b>>distamycin>tren.

On to `CN1CCN(c2ccc3[nH]c(-c4ccc5[nH]c(-c6ccc(O)cc6)nc5c4)nc3c2)CC1` [Ht, Hoechst 33258], for which, in series [2], the “log KL1” value is 7.6 and 7.6 ± 0.1. In series [2] (pH 7.0, 35° C), the “log KL2” value is 9.1 and 9.1 ± 0.2.

Regarding `CC(=O)Nc1cc(C(=O)Nc2cc(C(=O)Nc3cc(C(=O)NCCCN(C)C)n(C)c3)n(CCCCNCCN(CCN)CCN)c2)n(C)c1` [Compound 6b], in series [2], the “log KL1” value is given as 8.9 ± 0.08. In series [2] (pH 7.0, 35° C), the “log KL2” value is on record as 9.0 ± 0.2, the “log KHtL” value was found to be 10.3 ± 0.1 and the “log KL1 KL2” value is 17.9. The “KL1 (association constant)” value in series [2] (first ligand, hexadecamer A3T3 site, pH 7.0, 35° C) was 7.9e+08 M⁻¹ and 8e+08 M⁻¹. In addition, the “complex equilibrium association constants (KL1 KL2)” value in series [2] (hexadecamer, Table I) was 8×10^17 M^-2. For the same compound, the “quenching of Ht fluorescence” value in series [2] (in DNA:Ht:L complex, from Q') was 36%. The same compound showed a KL2 in series [2] (second ligand, hexadecamer, pH 7.0, 35° C) of 1e+09 M⁻¹. Further, the “inhibition of topoI relaxation of supercoiled pBR322” value (from here on “inhibition … of supercoiled pBR322”) in series [3] (10 μM) is recorded as “the predominant isomer is the fully supercoiled species”. For the same compound, in series [3] (30 μM), the “inhibition of topoI after partial relaxation” value was “inhibited topoI even after pBR322 was considerably unwound” and the “inhibition … of supercoiled pBR322” value is “complete inhibition of topoI”. The “inhibition of DNase I cleavage at the four A+T-rich binding sites” value (shortened to “inhibition of DNase I cleavage”) in series [4] (5 μM (0.05 ligand/bp DNA)) is “did not produce detectable inhibition of DNase I cleavage”. Further, the “inhibition of DNase I cleavage” value in series [4] (setting [8]) is “specific inhibition of cleavage was observed at three of the four sites”. Moreover, in series [1], the “RL vs. agent concentration” value is “quite concentration dependent and sigmoidal in response”; the “order of effectiveness in increasing the apparent length of DNA fragments” value is reported as 6a^~ 6b>>distamycin>tren. The “electrophoretic mobility of DNA restriction fragments” value in series [1] (increasing concentration 20, 40, 60, 80 μM) is listed as “the mobility of DNA restriction fragments decreases”. Moreover, the “activation energy (ΔG*) of exchange” value in series [5] is on record as ~ 17 kcal/mol.

For `Cn1cc(NC(=O)c2cc(NC(=O)c3cc(NC=O)cn3C)cn2C)cc1C(=O)NCCC(=N)N` [Dm, Distamycin], the “log KL1” value in series [2] was 7.6 ± 0.09. In series [2] (pH 7.0, 35° C), the “log KL2” value is on record as 8.4 ± 0.08, the “log KHtL” value is 8.8 ± 0.09 and the “log KL1 KL2” value worked out at 16.0. Further, in series [3] (150 μM), the “inhibition of topoI after partial relaxation” value is on record as “no effect” and the “inhibition … of supercoiled pBR322” value was “only partially inhibited; also recorded: partial inhibition”. Also, the “inhibition of DNase I cleavage” value in series [4] (5 μM (0.05 ligand/bp DNA)) is given as “did not produce detectable inhibition of DNase I cleavage”. In addition, in series [4] (setting [8]), the “inhibition of DNase I cleavage” value was “specific inhibition of cleavage was observed at three of the four sites”. In addition, in series [4] (highest concentrations, 5'- and 3'-labeled fragments), the “enhancements in or increased rates of DNase I cleavage at specific sequences” value was “showed enhancements similar to those found previously”. Further, in series [1], the “change in electrophoretic behavior” value was “smaller changes at 150 μM (0.66 ligand/bp) than 6a or 6b at 40 μM”, the “RL vs. agent concentration” value is reported as “does not demonstrate very marked changes even at the highest concentrations examined” and the “order of effectiveness in increasing the apparent length of DNA fragments” value is 6a^~ 6b>>distamycin>tren. Besides, in series [6], the “equilibrium constant for 1:1 complex formation” value is 4e+07 M⁻¹. Further, the LD50 in the series on mice (i.p.) is given as 500 mg/kg. Further, in the series with mice (i.v.), the LD50 is listed as 75 mg/kg. Also, the “rate constant for exchange” value in series [7] was 0.2 s⁻¹.

A word on the LD50: it is the dose at which mortality reaches 50%.
